# Assay results as given in PubChem BioAssay (NCI).
#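 Five compound concentrations were applied to cells in 96-well plates for 48 hours; endpoints were derived by simple linear interpolation of the resulting dose-response curve. Here, GI50 denotes the concentration required for 50% inhibition of growth. Definition used: TGI = concentration required for complete inhibition of growth.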
# Legend:
# Test in all cases: NCI-60 cell line screen, 48 h
# [1] = test system: UO-31 renal
# [2] = test system: HS 578T breast
# [3] = test system: SK-MEL-28 melanoma
# [4] = test system: MALME-3M melanoma
# [5] = test system: OVCAR-8 ovarian
# [6] = test system: U251 CNS
# [7] = test system: HCT-116 colon
# [8] = test system: SK-MEL-5 melanoma
# [9] = test system: SK-MEL-2 melanoma
# [10] = test system: DU-145 prostate
Compound,TGI [1] [µM],TGI [2] [µM],TGI [3] [µM],TGI [4] [µM],TGI [5] [µM],TGI [6] [µM],TGI [7] [µM],TGI [8] [µM],TGI [9] [µM],TGI [10] [µM],GI50 [9] [nM],GI50 [7] [µM]
O=C(/C=C/c1cccc(Br)c1)c1cccs1,25.7,72.3,32.9,41.6,37.6,26.8,18,30.7,44.1,–,–,–
CCC1C(c2cccc(OC)c2O)c2cc3c(cc2OC1N1CCCC1)OCO3 (stereo not drawn),39.5,29.9,43.4,–,89.9,–,21.2,22.8,43.5,–,–,–
COC(=O)c1cc(NC(=O)c2cc(NC(=O)c3cc([N+](=O)[O-])cn3C)cn2C)cn1C,> 100,–,> 100,> 100,> 100,> 100,> 100,91.9,> 100,> 100,–,–
Cn1c(C(C#N)c2nc(Cl)ncc2Br)nc2ccccc21 (stereo not drawn),> 100,–,> 100,> 100,> 100,> 100,> 100,> 100,–,> 100,–,–
COC(=O)/C=C(\C)C(=O)N(C)c1ccccc1I,> 100,–,> 100,> 100,> 100,> 100,> 100,> 100,> 100,> 100,–,–
Cc1ccsc1/C=N/Nc1cc(C)c2cccc(C)c2n1,–,> 100,> 100,–,> 100,> 100,–,–,> 100,> 100,–,–
CC(C)[C@@H]1CC[C@@H](C)C[C@H]1OC(=O)/C=C1/C2C=CC(O2)C1C(=O)O[C@@H]1C[C@H](C)CC[C@H]1C(C)C (stereo partly drawn),> 100,> 100,> 100,> 100,> 100,> 100,> 100,> 100,–,> 100,–,–
CC(C)C(C/C=C1\CC(CO)(COC(=O)c2ccccc2)OC1=O)C(C)C (stereo not drawn),32.4,33.4,30.2,31.9,36,39.1,31,29.7,> 100,–,–,–
Cc1ccc(S(=O)(=O)/N=C(\NN)Nc2ccc(Cl)cc2)cc1,> 100,–,> 100,–,> 100,> 100,> 100,> 100,> 100,> 100,–,–
Cc1cc(O)c2c(c1O)C(=O)C13C(=C2O)C(=O)C2C(O)C1C1C(O)C3C(=O)C3=C(O)c4c(O)cc(C)c(O)c4C(=O)C321 (stereo not drawn),0.214,–,0.59,0.327,1.59,0.188,0.168,0.364,0.468,–,–,–
O=C(Nc1nc2ccccc2n1Cc1ccccc1)NC12CC3CC(CC(C3)C1)C2,> 100,–,> 100,> 100,> 100,> 100,> 100,> 100,> 100,–,–,–
O=C1O/C(=C(\Br)c2cccc3ccccc23)c2ccccc21,> 56.1,–,> 50.2,> 60.6,> 62.3,> 100,> 61.9,51.1,> 61,–,–,–
O=C(CN1CCN(Cc2ccccc2)CC1)N1CCCn2c1nc1ccccc1c2=O,> 100,> 100,–,> 100,> 100,> 100,> 100,> 100,> 100,> 100,–,–
COc1ccc(S(=O)(=O)O)cc1-n1nc(C(=O)Nc2ccccc2)n[n+]1-c1cc(S(=O)(=O)[O-])ccc1OC,> 100,> 100,> 100,> 100,–,> 100,> 100,> 100,–,> 100,–,–
COC(=O)C(CCc1ccccc1I)C1=CCC2(CC1)OCCO2 (stereo not drawn),76.2,> 100,> 100,> 100,> 100,> 100,–,40,> 100,> 100,–,–
O=C(NCCC(F)(F)C(F)(F)C(F)(F)C(F)(F)F)NC1OC(CO)C(O)C(O)C1O (stereo not drawn),> 100,> 100,> 100,> 100,–,> 100,> 100,> 100,> 100,> 100,–,–
CCOC(=O)Oc1cc2c(c(OC)c1OC)-c1ccc(SC)c(=O)cc1C(NC(=O)C(F)(F)F)CC2 (stereo not drawn),75.6,< 0.001,> 100,–,–,0.0148,–,0.00191,51.4,–,3.03,–
CCCCc1c(C(=O)OC(C)(C)C)cc(C#Cc2cc(C(=O)OC(C)(C)C)c(CCCC)c(C(=O)OC(C)(C)C)c2)cc1C(=O)OC(C)(C)C,> 100,–,> 100,> 100,–,> 100,> 100,> 100,> 100,> 100,–,–
O=c1[nH]nc(-c2ccccc2)n1/N=C/c1ccncc1,> 100,97.3,> 100,> 100,> 100,> 100,> 100,> 100,–,> 100,–,–
CCOC(=O)c1c(Br)c(-c2ccc(Br)cc2)c(Br)n1C,> 100,> 100,51.8,62.7,87.1,55,34.4,35.2,–,> 100,–,14.8
CCOC(=O)c1cc(C(=O)c2ccccc2)n2nc(-c3ccc(Cl)cc3)ccc12,27.1,41.5,68.3,46.3,–,66.3,> 100,51.9,32.6,85.2,–,–
C=C1C(=O)OC2(C)C3CCC(C3)C12 (stereo not drawn),> 100,–,> 100,> 100,> 100,> 100,> 100,> 100,> 100,–,–,–
NC(=O)c1nnc2cc(F)ccc2c1N,> 100,> 100,–,> 100,> 100,> 100,> 100,> 100,> 100,> 100,–,–
